Peptide text beside a SMILES is read from it.
What was measured:
bPepT1 [1] = molecular target: T1, bPepT1 (Bos taurus, UniProt A5D7E5); experiment: Inhibition of [3H]-Gly-Sar uptake in bPepT1-transfected CHO cells; assay type: cell-based, bovine (dairy cows); conditions: for IC50: read-out: IC50 (inhibition of [3H]-Gly-Sar uptake), Bovine
T1 construct: expressed in transfected cells; host or cells: CHO cells, transient transfection with pcDNA3.1-bPepT1
T1 sequence (A5D7E5 1-707): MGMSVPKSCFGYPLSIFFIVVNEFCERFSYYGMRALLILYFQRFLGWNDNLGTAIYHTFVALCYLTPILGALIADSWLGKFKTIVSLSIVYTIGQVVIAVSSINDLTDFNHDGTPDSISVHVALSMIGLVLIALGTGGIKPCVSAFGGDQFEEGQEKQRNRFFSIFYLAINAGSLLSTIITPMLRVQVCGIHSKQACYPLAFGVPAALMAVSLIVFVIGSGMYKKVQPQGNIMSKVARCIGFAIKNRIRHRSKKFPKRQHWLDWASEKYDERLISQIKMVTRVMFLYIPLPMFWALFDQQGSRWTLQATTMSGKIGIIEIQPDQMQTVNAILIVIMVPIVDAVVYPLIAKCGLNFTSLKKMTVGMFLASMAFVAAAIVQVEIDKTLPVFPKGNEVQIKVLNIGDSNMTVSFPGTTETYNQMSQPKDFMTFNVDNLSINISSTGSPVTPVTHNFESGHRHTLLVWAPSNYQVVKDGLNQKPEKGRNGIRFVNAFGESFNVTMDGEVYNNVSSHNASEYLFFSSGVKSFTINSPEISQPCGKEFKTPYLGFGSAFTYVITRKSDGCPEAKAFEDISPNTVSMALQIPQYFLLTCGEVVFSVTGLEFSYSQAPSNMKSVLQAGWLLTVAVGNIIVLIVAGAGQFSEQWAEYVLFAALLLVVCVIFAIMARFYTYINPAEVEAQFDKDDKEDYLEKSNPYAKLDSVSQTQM
Method: (§1) The CHO cells were cultured in F12 Ham’s medium that contained 10% FBS. All cell cultures were maintained at 37 °C and 5% CO2 in a humidified atmosphere. The culture medium was changed every other day. One day before transfection, the CHO cells were passaged and plated onto 12-well plates at a density of 5.0 × 10^4 cells/well. The bPepT1 cDNA [19] was cloned into the pcDNA3.1 expression vector (Invitrogen, Carlsbad, USA). When the CHO cells were cultured to approximately 70–90% confluence, the cells were transfected with the pcDNA3.1-bPepT1 vector or the pcDNA3.1 vector as a control. For each well, 1 μg of DNA was mixed with 2 μL of P3000™ and 1 μL of Lipofectamine 3000 (Invitrogen, Carlsbad, USA) in 50 μL of OPTI-MEM and incubated at room temperature for 5 min. Then, the DNA-lipid complex was added into each well and the cells were transfected for 24 h.
(§2) The transport activity of bPepT1 was determined using [^3H]-Gly-Sar (3.7 × 10^4 Bq/mL), a well-known hydrolysis-resistant peptide substrate, in transiently transfected CHO cells. The transfected cells were washed three times with uptake buffer at pH 6.0 which contained 140 mmol/L NaCl, 5.4 mmol/L KCl, 0.8 mmol/L MgSO4, 1.8 mmol/L CaCl2, 5 mmol/L glucose, and 25 mmol/L MES. Then, the cells were preincubated with the buffer for 30 min at 37 °C.
For the transport time study, the transfected CHO cells were incubated with 0.02 mmol/L of [^3H]-Gly-Sar (3.7 × 10^4 Bq/mL) for various times (1, 5, 10, 20, 40, and 60 min). For the pH dependency study, the pH of the uptake buffer was adjusted to various pH (5.0, 5.5, 6.0, 6.5, 7.0, and 7.5) with HEPES/Tris or MES/Tris. For the transport kinetic study, Gly-Sar was prepared at various concentrations (0.02–10 mmol/L) with 3.7 × 10^4 Bq/mL [^3H]-Gly-Sar. For the inhibition study, 15 small peptides that contained essential AA at five concentrations (0.001–10 mmol/L) were added into the uptake buffer with [^3H]-Gly-Sar, and they were incubated with the CHO cells for 5 min. Then, the concentration of unlabeled peptide that inhibited 50% of [^3H]-Gly-Sar uptake (IC50) was calculated using PRISM software (GraphPad, San Diego, CA, USA). Uptake was stopped by washing with ice-cold uptake buffer. The cells were lysed by adding 0.5 mL lysis buffer that contained 1% Triton X-100, followed by incubation at 37 °C for 60 min. The radioactivity of the cell lysate was measured using liquid scintillation counting (LSC, Wallac1414, Wallac Co., Turku, Finland). The total protein of the cell lysate was determined using a BCA Protein Assay Kit (Beyotime). The uptake was expressed as nmol/(mg protein • 5 min).

sheep PepT1 [2] = conditions: CHO cells transfected with sheep PepT1 cDNA; ref Chen et al. [14]; cited from earlier work
Text: Table 1 Kinetic parameters of CHO cells transfected with bovine, sheep, pig, and chicken PepT1 cDNA | column: IC50, mmol/L / Sheep^c

pig PepT1 = conditions: CHO cells transfected with pig PepT1 cDNA; CBD = cannot be determined; ref Klang et al. [17]; cited from earlier work
Text: Table 1 Kinetic parameters of CHO cells transfected with bovine, sheep, pig, and chicken PepT1 cDNA | column: IC50, mmol/L / Pig^d

chicken PepT1 [3] = conditions: CHO cells transfected with chicken PepT1 cDNA; ref Chen et al. [15]; cited from earlier work
Text: Table 1 Kinetic parameters of CHO cells transfected with bovine, sheep, pig, and chicken PepT1 cDNA | column: IC50, mmol/L / Chicken^e

bPepT1 [4] = molecular target: T1, bPepT1; experiment: Time course of [3H]-Gly-Sar uptake in transfected CHO cells; assay type: cell-based, bovine (dairy cows); conditions: 0.02 mmol/L; 1–60 min; 24 h after transfection with bPepT1; n = 5
Method: as §1, with “Then, the DNA-lipid complex was added into each well and the cells were transfected for 24 h.” left out
(§3) The transport activity of bPepT1 was determined using [^3H]-Gly-Sar (3.7 × 10^4 Bq/mL), a well-known hydrolysis-resistant peptide substrate, in transiently transfected CHO cells. […]
(§4) For the transport time study, the transfected CHO cells were incubated with 0.02 mmol/L of [^3H]-Gly-Sar (3.7 × 10^4 Bq/mL) for various times (1, 5, 10, 20, 40, and 60 min). […] The radioactivity of the cell lysate was measured using liquid scintillation counting (LSC, Wallac1414, Wallac Co., Turku, Finland). The total protein of the cell lysate was determined using a BCA Protein Assay Kit (Beyotime). The uptake was expressed as nmol/(mg protein • 5 min).

CHO cells = experiment: [3H]-Gly-Sar uptake in CHO cells transfected with pcDNA3.1 control vector; assay type: cell-based, Chinese hamster; conditions: 0.02 mmol/L, 1–60 min, n = 5
Method: as §1, with “Then, the DNA-lipid complex was added into each well and the cells were transfected for 24 h.” left out
as §3, §4

sheep PepT1 [5] = conditions: ref [14], read-out: Km for Gly-Sar, sheep; cited from earlier work
Text: (§5) These features of bPepT1 met the requirement for transporting a large number of various small peptides. The str ...

chicken PepT1 [6] = conditions: ref [15], read-out: Km for Gly-Sar, chickens; cited from earlier work
Text: as §5

bPepT1 [7] = molecular target: T1, bPepT1; experiment: pH dependency of Gly-Sar uptake in bPepT1-transfected CHO cells; assay type: cell-based, bovine (dairy cows); conditions: 0.02 mmol/L [3H]-Gly-Sar; pH 5.0–7.5; 5 min; n = 4; P < 0.05
Method: as §1, with “Then, the DNA-lipid complex was added into each well and the cells were transfected for 24 h.” left out
as §3, §4

bPepT1 [8] = molecular target: T1, bPepT1; experiment: Gly-Sar transport kinetics in bPepT1-transfected CHO cells; assay type: cell-based, bovine (dairy cows); conditions: 5 min, n = 6
Method: as §1, §2
For the transport time study, the transfected CHO cells were incubated with 0.02 mmol/L of [^3H]-Gly-Sar (3.7 × 10^4 Bq/mL) for various times (1, 5, 10, 20, 40, and 60 min). For the pH dependency study, the pH of the uptake buffer was adjusted to various pH (5.0, 5.5, 6.0, 6.5, 7.0, and 7.5) with HEPES/Tris or MES/Tris. For the transport kinetic study, Gly-Sar was prepared at various concentrations (0.02–10 mmol/L) with 3.7 × 10^4 Bq/mL [^3H]-Gly-Sar. […] The radioactivity of the cell lysate was measured using liquid scintillation counting (LSC, Wallac1414, Wallac Co., Turku, Finland). The total protein of the cell lysate was determined using a BCA Protein Assay Kit (Beyotime). The uptake was expressed as nmol/(mg protein • 5 min).

[9] = 0.02 mmol/L [3H]-Gly-Sar (3.7 × 10^4 Bq/mL), unlabeled peptide 0.001–10 mmol/L, pH 6.0, 5 min, liquid scintillation counting, n = 4 (Fig. 6), CBD = cannot be determined

| Molecule | IC50 (bPepT1 [1]; [9]) [µM] | also measured |
| --- | --- | --- |
| NCCCC[C@H](NC(=O)[C@@H](N)CCCCN)C(=O)O [Lys-Lys] | 9650 | – |
| NCCCC[C@H](N)C(=O)N[C@@H](Cc1ccccc1)C(=O)O [Lys-Phe] | 90 | – |
| CSCC[C@H](NC(=O)[C@@H](N)CCCCN)C(=O)O [Lys-Met] | 32 | – |
| CC(C)C[C@H](N)C(=O)NCC(=O)NCC(=O)O [Leu-Gly-Gly] (H-Leu-Gly-Gly-OH) | 2070 | – |
| NCCCC[C@H](NC(=O)CN)C(=O)O [Gly-Lys] (H-Gly-Lys-OH) | 78 | – |
| NCCCC[C@H](NC(=O)[C@H](Cc1c[nH]c2ccccc12)NC(=O)[C@@H](N)CCCCN)C(=O)O [Lys-Trp-Lys] (H-Lys-Trp-Lys-OH; N-terminus and C-terminus assumed) | > 2070 | IC50 (sheep PepT1 [2]): 3730 µM; IC50 (inhibition of [3H]-Gly-Sar uptake), Bovine (bPepT1 [1]; [9]): CBD; Favorability as substrate / affinity for bPepT1 (in words) (bPepT1 [1]; judged from IC50 values): less favorable substrates for bPepT1; IC50 (pig PepT1): 2200 µM; IC50 (chicken PepT1 [3]): 5900 µM |
| CSCC[C@H](NC(=O)CN)C(=O)O [Gly-Met] | 32 | – |
| NCC(=O)O [Gly] | – | Inhibition of [3H]-Gly-Sar uptake (in words) (bPepT1 [1]; 0.02 mmol/L [3H]-Gly-Sar, pH 6.0, 5 min): not inhibited |
| glycyl-sarcosine [Gly-Sar] | – | Time course of [3H]-Gly-Sar uptake (bPepT1 [4]): increased rapidly and linearly in the first 10 min and reached a plateau subsequently; [3H]-Gly-Sar uptake in control-vector cells (CHO cells): only marginal, and it was much lower than in CHO cells that were transfected with the bPepT1 expression vector; Km (sheep PepT1 [5]): 1000 ± 100 µM; Km (chicken PepT1 [6]): 2600 ± 300 µM; pH dependency of [3H]-Gly-Sar uptake (bPepT1 [7]): pH-dependent and greater at pH 6.5 and 7.0 than at pH 5.5 and 6.0 which was greater than at pH 5.0 and 7.5; Km (bPepT1 [8]; Gly-Sar 0.02–10 mmol/L with 3.7 × 10^4 Bq/mL [3H]-Gly-Sar, 37 °C preincubation, Michaelis–Menten, mean ± SEM): 940 ± 60 µM; maximum velocity (Vmax) (bPepT1 [8]; Gly-Sar 0.02–10 mmol/L with 3.7 × 10^4 Bq/mL [3H]-Gly-Sar, Michaelis–Menten, mean ± SEM): 20.80 ± 1.74 nmol/(mg protein • 5 min); Gly-Sar concentration at which transport was saturated (bPepT1 [8]; Gly-Sar 0.02–10 mmol/L): 5 mmol/L |

The next lines start with results.

| IC50 (bPepT1 [1]; [9]) [µM] | Molecule | also measured |
| --- | --- | --- |
| 96 | CSCC[C@H](NC(=O)[C@@H](N)CCSC)C(=O)O [Met-Met] (H-Met-Met-OH) | – |
| 58 | CSCC[C@H](N)C(=O)NCC(=O)O [Met-Gly] (H-Met-Gly-OH) | – |
| 23 | CSCC[C@H](N)C(=O)N[C@@H](CCC(=O)O)C(=O)O [Met-Glu] (H-Met-Glu-OH) | – |
| 6040 | CSCC[C@H](NC(=O)[C@H](CCSC)NC(=O)CNC(=O)[C@@H](N)CCSC)C(=O)O [Met-Gly-Met-Met] (H-MGMM-OH) | – |
| 80 | CSCC[C@H](N)C(=O)N[C@@H](CC(C)C)C(=O)O [Met-Leu] (H-Met-Leu-OH) | – |
| 14 | N[C@@H](Cc1c[nH]c2ccccc12)C(=O)N[C@@H](Cc1ccccc1)C(=O)O [Trp-Phe] (H-Trp-Phe-OH) | – |
| 50 | CSCC[C@H](N)C(=O)N[C@@H](CC(C)C)C(=O)N[C@@H](Cc1ccccc1)C(=O)O [Met-Leu-Phe] | – |
| 20 | CSCC[C@H](N)C(=O)N[C@@H](CCCCN)C(=O)O [Met-Lys] (H-Met-Lys-OH) | – |

From PMC5778758, “Functional characterization of oligopeptide transporter 1 of dairy cows” (Journal of Animal Science and Biotechnology, 2018)
